Laboratory results from patent publication US20090209507A1, “15-O-Desmethylmacbecin Derivatives and Their Use in the Treatment of Cancer or B-Cell Malignancies” (priority 2006, published 2009).

How the values were obtained:
[1] = system: CNXF 498NL; experiment: monolayer proliferation assay (modified propidium iodide assay), CNXF 498NL; type: cell-based, human; details: CNXF 498NL (CNS), 4 days continuous exposure
Description: (§1) In vitro evaluation of compounds for anticancer activity in a panel of human tumour cell lines in a monolayer proliferation assay was carried out at the Oncotest Testing Facility, Institute for Experimental Oncology, Oncotest GmbH, Freiburg.
(§2) The Oncotest cell lines were established from human tumor xenografts as described by Roth et al., (1999). The origin of the donor xenografts was described by Fiebig et al., (1999). Other cell lines are either obtained from the NCI (DU145, MCF-7) or purchased from DSMZ, Braunschweig, Germany.
(§3) All cell lines, unless otherwise specified, were grown at 37° C. in a humidified atmosphere (95% air, 5% CO2) in a ‘ready-mix’ medium containing RPMI 1640 medium, 10% fetal calf serum, and 0.1 mg/mL gentamicin (PAA, Cölbe, Germany).
(§4) A modified propidium iodide assay was used to assess the effects of the test compound(s) on the growth of the human tumour cell lines (Dengler et al., (1995)).
(§5) Briefly, cells were harvested from exponential phase cultures by trypsinization, counted and plated in 96 well flat-bottomed microtitre plates at a cell density dependent on the cell line (5-10.000 viable cells/well). […] After thawing the plates, fluorescence was measured using the Cytofluor 4000 microplate reader (excitation 530 nm, emission 620 nm), giving a direct relationship to the total number of viable cells.
(§6) Growth inhibition is expressed as treated/control×100 (% T/C). […]

[2] = system: CXF HT29; experiment: monolayer proliferation assay (modified propidium iodide assay), CXF HT29; type: cell-based, human; details: CXF HT29 (Colon), 4 days continuous exposure
Description: as §1, §2, §3, §4, §5, §6

[3] = system: LXF 1121L; experiment: monolayer proliferation assay (modified propidium iodide assay), LXF 1121L; type: cell-based, human; details: LXF 1121L (Lung, large cell ca), 4 days continuous exposure
Description: as §1, §2, §3, §4, §5, §6

[4] = system: MCF-7; experiment: monolayer proliferation assay (modified propidium iodide assay), MCF-7; type: cell-based, human; details: MCF-7 (Breast), 4 days continuous exposure
Description: as §1, §2, §3, §4, §5, §6

[5] = system: MEXF 394NL; experiment: monolayer proliferation assay (modified propidium iodide assay), MEXF 394NL; type: cell-based, human; details: MEXF 394NL (Melanoma), 4 days continuous exposure
Description: as §1, §2, §3, §4, §5, §6

[6] = system: DU145; experiment: monolayer proliferation assay (modified propidium iodide assay), DU145; type: cell-based, human; details: DU145 (Prostate - PTEN positive), 4 days continuous exposure
Description: as §1, §2, §3, §4, §5, §6

[7] = system: Reverse transcriptase; details: cited from earlier work
[8] = biological target: terminal deoxynucleotidyl transferase (Homo sapiens, UniProt P04053); details: cited from earlier work
Chain of terminal deoxynucleotidyl transferase (P04053 whole entry, species assumed): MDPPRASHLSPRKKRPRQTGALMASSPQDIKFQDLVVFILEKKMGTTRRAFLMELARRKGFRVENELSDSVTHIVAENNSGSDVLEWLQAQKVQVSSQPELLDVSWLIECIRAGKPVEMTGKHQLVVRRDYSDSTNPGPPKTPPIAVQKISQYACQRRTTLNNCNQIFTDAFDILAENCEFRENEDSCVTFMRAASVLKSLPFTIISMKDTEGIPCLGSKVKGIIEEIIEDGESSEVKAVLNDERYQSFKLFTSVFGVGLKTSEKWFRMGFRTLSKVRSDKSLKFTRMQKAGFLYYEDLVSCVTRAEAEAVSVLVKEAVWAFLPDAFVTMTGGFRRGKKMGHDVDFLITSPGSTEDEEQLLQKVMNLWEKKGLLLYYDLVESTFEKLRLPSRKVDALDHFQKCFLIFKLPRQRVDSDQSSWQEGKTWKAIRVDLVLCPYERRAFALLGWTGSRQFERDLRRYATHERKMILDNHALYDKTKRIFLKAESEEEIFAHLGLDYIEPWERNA

Structure (SMILES)	Test/Control (%) at drug concentration ([1]; 1 μg/mL) [%]	Test/Control (%) at drug concentration ([1]; 10 μg/mL) [%]	Test/Control (%) at drug concentration ([2]; 1 μg/mL) [%]	Test/Control (%) at drug concentration ([2]; 10 μg/mL) [%]	Test/Control (%) at drug concentration ([3]; 1 μg/mL) [%]	Test/Control (%) at drug concentration ([3]; 10 μg/mL) [%]	Test/Control (%) at drug concentration ([4]; 1 μg/mL) [%]	Test/Control (%) at drug concentration ([4]; 10 μg/mL) [%]	Test/Control (%) at drug concentration ([5]; 1 μg/mL) [%]	Test/Control (%) at drug concentration ([5]; 10 μg/mL) [%]	Test/Control (%) at drug concentration ([6]; 1 μg/mL) [%]	Test/Control (%) at drug concentration ([6]; 10 μg/mL) [%]	Reverse transcriptase activity inhibition [7]	terminal deoxynucleotidyl transferase activity inhibition [8]
CO[C@H]1[C@@H](OC)C[C@H](C)[C@@H](O)C2=CC(=O)C=C(NC(=O)/C(C)=C/C=C\[C@H](C)[C@@H](OC(N)=O)/C(C)=C/[C@@H]1C)C2=O [Compound 14, 15-O-desmethylmacbecin]	49.3	4.7	58.3	7.7	63	6	65.3	15.3	17	2.3	49.7	6	–	–
CO[C@H]1[C@@H](OC)C[C@H](C)[C@@H](OC)C2=CC(=O)C=C(NC(=O)/C(C)=C/C=C\[C@H](C)[C@@H](OC(N)=O)/C(C)=C/[C@@H]1C)C2=O [Macbecin, macbecin]	–	–	–	–	–	–	–	–	–	–	–	–	not inhibited	not inhibited
